Key:
[1] = Solubility by HPLC (external standard method) compared with agomelatine of form II; format: physicochemical
Procedure: Using an external standard method, the compounds of Examples 1, 2 and 3 are tested by HPLC and compared with agomelatine of form II. The results are presented in Table 5 in the form of % increase in solubility relative to the solubility of agomelatine of form II: […]

[2] = Stability under denaturing conditions in incubators, determined by DSC over 2 months; format: physicochemical
Procedure: Samples of the compounds of Examples 1, 2 and 3 are placed in incubators under denaturing conditions and the stability is determined by DSC measurements over 2 months.

Compound | Solubility (increase versus agomelatine form II) in 0.1N HCl [1] | Solubility (increase versus agomelatine form II) in a buffer pH 6.8 [1] | Solubility (increase versus agomelatine form II) in water [1] | Stability ([2]; 25° C., 60% RH, open bottle) | Stability ([2]; 50° C., closed bottle) | Stability ([2]; 70° C., closed bottle)
COc1ccc2cccc(CCNC(C)=O)c2c1.O=S(=O)(O)c1cccc2c(S(=O)(=O)O)cccc12 [Compound of Example 1, Agomelatine/1,5-Naphthalenedisulphonic Acid (2/1) Complex] | +25% | +48% | +18% | stable | stable | stable
COc1ccc2cccc(CCNC(C)=O)c2c1.O.O=S(=O)(O)c1cccc2c(S(=O)(=O)O)cccc12 [Compound of Example 2, Agomelatine/1,5-Naphthalenedisulphonic Acid (2/1) Monohydrate Complex] | +75% | +57% | +12% | stable | stable | stable
COc1ccc2cccc(CCNC(C)=O)c2c1.COc1ccc2cccc(CCNC(C)=O)c2c1.O=S(=O)(O)c1ccccc1 [Compound of Example 3, Agomelatine/Benzenesulphonic Acid (2/1) Complex] | +32% | +46% | +22% | stable | stable | stable

Source: patent US9573891B2, “Complexes of agomelatine and sulphonic acids, a process for their preparation and pharmaceutical compositions containing them” (LES LABORATOIRES SERVIER, priority 2013, dated 2017)
